Assay results as given in patent US20250122182A1 (Isosterix, Inc., priority 2023, published 2025).

Target: Recombinant KAT6A/MOZ (488-778) protein (Homo sapiens (Human), UniProt Q92794)
Test: KAT6A AlphaLISA Inhibition Screening Assay
Format: biochemical
Details: for inhibition at 1 µM: read-out: Average Kat6A % inhibition @ 1 μM; for inhibition at 1 µM / Average Kat6A % inhibition @ 1 μM: 1 μM test compound; for inhibition at 10 µM: read-out: Average Kat6A % inhibition @ 10 μM; for inhibition at 10 µM / Average Kat6A % inhibition @ 10 μM: 10 μM test compound
In short: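 25 nM KAT6A (488-778) pre-incubated 60 or 10 min with compound (10-point, 3-fold from 10 μM), then 400 nM acetyl-CoA and 200 nM biotin-H3(1-21) peptide added for 120 min at RT in pH 8.0 Tris buffer with 330 nM TSA. Acetylation read by AlphaLISA (anti-acetyl-lysine acceptor/streptavidin donor beads); % inhibition vs vehicle.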

Recombinant KAT6A/MOZ (488-778) protein, sequence (Q92794 488-778): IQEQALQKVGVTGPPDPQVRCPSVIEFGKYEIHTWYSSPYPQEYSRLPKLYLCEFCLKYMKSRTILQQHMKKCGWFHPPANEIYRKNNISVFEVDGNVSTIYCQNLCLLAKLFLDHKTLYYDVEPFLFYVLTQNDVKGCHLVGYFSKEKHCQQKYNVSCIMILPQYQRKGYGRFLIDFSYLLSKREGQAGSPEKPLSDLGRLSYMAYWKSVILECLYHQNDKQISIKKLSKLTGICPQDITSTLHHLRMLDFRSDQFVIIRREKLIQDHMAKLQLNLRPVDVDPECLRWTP

inhibition at 1 µM | inhibition at 10 µM | SMILES | Average Kat6A % inhibition @ 1 μM | Average Kat6A % inhibition @ 10 μM
100% | 100% | C#CC(=O)N1Cc2cnn(Cc3cc(OC)c4c(NS(=O)(=O)c5cc(Cl)ccc5OC)noc4c3)c2C1 [Syn. Ex. 1, 5-chloro-2-methoxy-N-(4-methoxy-6-((5-propioloyl-5,6-dihydropyrrolo[3,4-c]pyrazol-1(4H)-yl)methyl)benzo[d]isoxazol-3-yl)benzenesulfonamide] | – | –
95% | 98% | CCc1ccc(OC)c(S(=O)(=O)Nc2noc3cc(Oc4ccc(N)cn4)cc(OC)c23)c1 [Syn. Ex. 109, N-(6-((5-aminopyridin-2-yl)oxy)-4-methoxybenzo[d]isoxazol-3-yl)-5-ethyl-2-methoxybenzenesulfonamide] | – | –
100% | 100% | CCc1ccc(OCc2ncon2)c(S(=O)(=O)Nc2noc3cc(Cn4cc(CNC(=O)OC)cn4)cc(OC)c23)c1 [Syn. Ex. 74, methyl ((1-((3-((2-((1,2,4-oxadiazol-3-yl)methoxy)-5-ethylphenyl)sulfonamido)-4-methoxybenzo[d]isoxazol-6-yl)methyl)-1H-pyrazol-4-yl)methyl)carbamate] | – | –
100% | 100% | C#CC(=O)NCc1cnn(Cc2cc(OC)c3c(NS(=O)(=O)c4cc(CC)ccc4OCCO)noc3c2)c1 [Syn. Ex. 65, N-((1-((3-((5-ethyl-2-(2-hydroxyethoxy)phenyl)sulfonamido)-4-methoxybenzo[d]isoxazol-6-yl)methyl)-1H-pyrazol-4-yl)methyl)propiolamide] | – | –
98% | 99% | CCc1ccc(OCCC#N)c(S(=O)(=O)Nc2noc3cc(Cn4cc(CNC(=O)OC)cn4)cc(OC)c23)c1 [Syn. Ex. 83, methyl ((1-((3-((2-(2-cyanoethoxy)-5-ethylphenyl)sulfonamido)-4-methoxybenzo[d]isoxazol-6-yl)methyl)-1H-pyrazol-4-yl)methyl)carbamate] | – | –
– | – | COc1ccccc1S(=O)(=O)Nc1noc2cc(Cn3cc(CNS(C)(=O)=O)cn3)cc(OC)c12 [Syn. Ex. 6, 2-methoxy-N-(4-methoxy-6-((4-(methylsulfonamidomethyl)-1H-pyrazol-1-yl)methyl)benzo[d]isoxazol-3-yl) benzenesulfonamide] | 99% | 100%
100% | 100% | C=C(F)C(=O)NCc1cnn(Cc2cc(OC)c3c(NS(=O)(=O)c4cc(CC)ccc4OCC(=O)O)noc3c2)c1 [Syn. Ex. 67, 2-(4-ethyl-2-(N-(6-((4-((2-fluoroacrylamido)methyl)-1H-pyrazol-1-yl)methyl)-4-methoxybenzo[d]isoxazol-3-yl)sulfamoyl)phenoxy)acetic acid] | – | –
101% | 100% | C#CCOc1ccc(CC)cc1S(=O)(=O)Nc1noc2cc(Cn3cc(CNC(=O)OC)cn3)cc(OC)c12 [Syn. Ex. 128, methyl ((1-((3-((5-ethyl-2-(prop-2-yn-1-yloxy)phenyl)sulfonamido)-4-methoxybenzo[d]isoxazol-6-yl)methyl)-1H-pyrazol-4-yl)methyl)carbamate] | – | –
99% | 100% | CCc1ccc(OC)c(S(=O)(=O)Nc2noc3cc(Cn4cc(CNC(=O)NC)cn4)cc(OC)c23)c1 [Syn. Ex. 91, 5-ethyl-2-methoxy-N-(4-methoxy-6-((4-((3-methylureido)methyl)-1H-pyrazol-1-yl)methyl)benzo[d]isoxazol-3-yl)benzenesulfonamide] | – | –
100% | 100% | CCc1ccc(OCc2nc[nH]n2)c(S(=O)(=O)Nc2noc3cc(Cn4cc(CNC(=O)OC)cn4)cc(OC)c23)c1 [Syn. Ex. 117, methyl ((1-((3-((2-((1H-1,2,4-triazol-3-yl)methoxy)-5-ethylphenyl)sulfonamido)-4-methoxybenzo[d]isoxazol-6-yl)methyl)-1H-pyrazol-4-yl)methyl)carbamate] | – | –
83% | 100% | C#CC(=O)N1Cc2cn(Cc3cc(OC)c4c(NS(=O)(=O)c5cc(OC)ccc5OC)noc4c3)nc2C1 [Syn. Ex. 5, 2,5-dimethoxy-N-(4-methoxy-6-((5-propioloyl-5,6-dihydropyrrolo[3,4-c]pyrazol-2(4H)-yl)methyl)benzo[d]isoxazol-3-yl)benzenesulfonamide] | – | –
91% | 99% | CCc1ccc(OCCNC(C)=O)c(S(=O)(=O)Nc2noc3cc(Cn4cc(CNC(=O)OC)cn4)cc(OC)c23)c1 [Syn. Ex. 81, methyl ((1-((3-((2-(2-acetamidoethoxy)-5-ethylphenyl)sulfonamido)-4-methoxybenzo[d]isoxazol-6-yl)methyl)-1H-pyrazol-4-yl)methyl)carbamate] | – | –
99% | 100% | C=C(F)C(=O)N1Cc2cnn(Cc3cc(OC)c4c(NS(=O)(=O)c5cc(CC)ccc5OC)noc4c3)c2C1 [Syn. Ex. 13, 5-ethyl-N-(6-((5-(2-fluoroacryloyl)-5,6-dihydropyrrolo[3,4-c]pyrazol-1(4H)-yl)methyl)-4-methoxybenzo[d]isoxazol-3-yl)-2-methoxybenzenesulfonamide] | – | –
90% | 98% | CCc1ccc(OCc2ccccc2)c(S(=O)(=O)Nc2noc3cc(Cn4cc(CNC(=O)OC)cn4)cc(OC)c23)c1 [Syn. Ex. 93, methyl ((1-((3-((2-(benzyloxy)-5-ethylphenyl)sulfonamido)-4-methoxybenzo[d]isoxazol-6-yl)methyl)-1H-pyrazol-4-yl)methyl)carbamate] | – | –
– | – | C#CC(=O)N1Cc2cnn(Cc3cc(OC)c4c(NS(=O)(=O)c5ccc(C#N)cc5OC)noc4c3)c2C1 [Syn. Ex. 26, 4-cyano-2-methoxy-N-(4-methoxy-6-((5-propioloyl-5,6-dihydropyrrolo[3,4-c]pyrazol-1(4H)-yl)methyl)benzo[d]isoxazol-3-yl) benzenesulfonamide] | 99% | 100%
99% | 100% | C=C(F)C(=O)NCc1cnn(Cc2cc(OC)c3c(NS(=O)(=O)c4cc(CC)ccc4OCCNC(=O)OC)noc3c2)c1 [Syn. Ex. 79, methyl (2-(4-ethyl-2-(N-(6-((4-((2-fluoroacrylamido)methyl)-1H-pyrazol-1-yl)methyl)-4-methoxybenzo[d]isoxazol-3-yl)sulfamoyl)phenoxy)ethyl)carbamate] | – | –
9% | 58% | CCc1ccc(OC)c(S(=O)(=O)Nc2noc3cc(Oc4cc(CNC(=O)OC)ccn4)cc(OC)c23)c1 [Syn. Ex. 110, methyl ((2-((3-((5-ethyl-2-methoxyphenyl)sulfonamido)-4-methoxybenzo[d]isoxazol-6-yl)oxy)pyridin-4-yl)methyl)carbamate] | – | –

SMILES | inhibition at 1 µM | inhibition at 10 µM | Average Kat6A % inhibition @ 1 μM | Average Kat6A % inhibition @ 10 μM
CCc1ccc(OC)c(S(=O)(=O)Nc2noc3cc(Cn4cc(CNC(=O)OCCNC(=O)OC(C)(C)C)cn4)cc(OC)c23)c1 [Syn. Ex. 31, 2-((tert-butoxycarbonyl)amino)ethyl ((1-((3-((5-ethyl-2-methoxyphenyl)sulfonamido)-4-methoxybenzo[d]isoxazol-6-yl)methyl)-1H-pyrazol-4-yl)methyl)carbamate] | 86% | 99% | – | –
